The source of these data is patent publication US20100120740A1, “PRODRUGS OF FUSED HETEROCYCLIC INHIBITORS OF D-AMINO ACID OXIDASE” (SEPRACOR INC., priority 2008, published 2010).

A short description of the data set: Rate of hydrolysis of test compounds to 4H-furo[3,2-b]pyrrole-5-carboxylic acid in pH 7.4 and 2.0 aqueous solutions. It counts as physicochemical. To be noted: HPLC; for Hydrolysis rate at pH 7.4: 0.05 M sodium phosphate buffer pH 7.4, 0.013 mg/mL, over 6 hours; for Hydrolysis rate at pH 2.0: water adjusted with phosphoric acid to pH 2.0, 0.013 mg/mL, over 2 hours. The procedure:
10 mM DMSO solutions of test compounds were diluted with a 0.05 M sodium phosphate buffer (pH 7.4) or water adjusted with phosphoric acid to pH 2.0, with a final concentration of 0.013 mg/mL. Samples were analyzed over either 2 or 6 hours, by HPLC. The amount of test compound and the corresponding acid were determined. The rate of conversion of the test compound was calculated based on formation of the corresponding acid and loss of parent.
The rate of hydrolysis of test compounds to 4H-furo[3,2-b]pyrrole-5-carboxylic acid was evaluated in pH 7.4 aqueous solution over 6 hours, and in pH 2.0 aqueous solution over 2 hours, according to General Procedure 15.

For `O=C(OCC1CCCO1)c1cc2occc2[nH]1` (centres unmarked) [Compound 11, (tetrahydrofuran-2-yl)methyl 4H-furo[3,2-b]pyrrole-5-carboxylate], the “Hydrolysis rate at pH 7.4” value was “No hydrolysis” and the “Hydrolysis rate at pH 2.0” value is on record as “No hydrolysis”.

In the case of `Cc1oc(=O)oc1COC(=O)c1cc2occc2[nH]1` [Compound 12, (5-methyl-2-oxo-1,3-dioxol-4-yl)methyl 4H-furo[3,2-b]pyrrole-5-carboxylate], the “Hydrolysis rate at pH 7.4” value came to 0.20%/hr and the “Hydrolysis rate at pH 2.0” value is reported as “No hydrolysis”.

For the compound `CN(C)C(=O)COC(=O)c1cc2occc2[nH]1` [Compound 20, 2-(dimethylamino)-2-oxoethyl 4H-furo[3,2-b]pyrrole-5-carboxylate], the “Hydrolysis rate at pH 7.4” value is reported as “No hydrolysis” and the “Hydrolysis rate at pH 2.0” value is “No hydrolysis”.

For the compound `O=C(OCC(=O)N1CCOCC1)c1cc2occc2[nH]1` [Compound 21a, 2-morpholino-2-oxoethyl 4H-furo[3,2-b]pyrrole-5-carboxylate], the “Hydrolysis rate at pH 7.4” value was “No hydrolysis” and the “Hydrolysis rate at pH 2.0” value is reported as “No hydrolysis”.

Consider `O=C(OCC(=O)N1CCC1)c1cc2occc2[nH]1` [Compound 22a, 2-(azetidin-1-yl)-2-oxoethyl 4H-furo[3,2-b]pyrrole-5-carboxylate], for which the “Hydrolysis rate at pH 7.4” value is “No hydrolysis” and the “Hydrolysis rate at pH 2.0” value was “No hydrolysis”.

With `O=C(OCCN1CCOCC1)c1cc2occc2[nH]1` [Compound 24, 2-morpholinoethyl 4H-furo[3,2-b]pyrrole-5-carboxylate], the “Hydrolysis rate at pH 7.4” value is recorded as “No hydrolysis” and the “Hydrolysis rate at pH 2.0” value is “No hydrolysis”.

For `CC(OC(=O)c1cc2occc2[nH]1)OC(=O)C(C)C` (centres unmarked) [Compound 31b, 1-(isobutyryloxy)ethyl 4H-furo[3,2-b]pyrrole-5-carboxylate], the “Hydrolysis rate at pH 7.4” value is on record as 3.46%/hr.

In the case of `CC(OC(=O)OC1CCCCC1)OC(=O)c1cc2occc2[nH]1` (centres unmarked) [Compound 36b, 1-(cyclohexyloxycarbonyloxy)ethyl 4H-furo[3,2-b]pyrrole-5-carboxylate], the “Hydrolysis rate at pH 7.4” value is listed as 0.21%/hr.
